Data published in patent publication US8273890B2 (4SC AG, priority 2007, dated 2012).

Biological target: T1, recombinant Plk1 protein (Homo sapiens, UniProt P53350)
T1 construct: histidine tag (N); made in house; host or cells: SF9 insect cells
Experiment: Plk1 kinase activity inhibition assay (33P-ATP, alpha casein substrate, flash plates)
Format: biochemical
Settings: enzymatic assay, 100 nM Li-ATP, 80 minutes at 30° C.
Experimental: The inhibition of Plk1 kinase activity can be measured using recombinant Plk1 protein expressed as an N-terminally histidine-tagged protein in SF9 insect cells and alpha casein as substrate. The Plk1 assay is run in 96 well plates by incubating 50 to 100 ng per well recombinant Plk1, 500 ng per well alpha casein (Sigma, # C-6780) as substrate, 10 μl of compound of invention (test compounds were dissolved as 20 mM solutions in dimethylsulfoxide (DMSO) and subsequently diluted), and 100 nM Li-ATP (including ^33P-ATP) in 100 μl of reaction buffer ([…] HEPES, pH 7.5; 3 mM MgCl2; 3 mM MnCl2; 3 μM Na-Orthovanadat; 1 mM DTT; 1 μg/ml PEG 8000) for 80 minutes at 30° C. The reactions are terminated by adding 100 μl stopping buffer (2% H3PO4 for 5 minutes) and are washed 3 times with washing solution (0.9% NaCl). Determining ^33P incorporated into the protein substrate alpha casein, the detection is based on the adhesion of the phosphorylated protein to the surface of scintillator-coated flash plates (Perkin Elmer, USA; #SMP-200). Phosphorylation of alpha casein is measured by counting the radioactivity bound to the plate for 60 sec. using a plate reader (Perkin Elmer, USA; Wallac Microbeta). By this method, the IC50 value of the Plk1 inhibition is determined as described above.

T1 sequence (P53350 whole entry): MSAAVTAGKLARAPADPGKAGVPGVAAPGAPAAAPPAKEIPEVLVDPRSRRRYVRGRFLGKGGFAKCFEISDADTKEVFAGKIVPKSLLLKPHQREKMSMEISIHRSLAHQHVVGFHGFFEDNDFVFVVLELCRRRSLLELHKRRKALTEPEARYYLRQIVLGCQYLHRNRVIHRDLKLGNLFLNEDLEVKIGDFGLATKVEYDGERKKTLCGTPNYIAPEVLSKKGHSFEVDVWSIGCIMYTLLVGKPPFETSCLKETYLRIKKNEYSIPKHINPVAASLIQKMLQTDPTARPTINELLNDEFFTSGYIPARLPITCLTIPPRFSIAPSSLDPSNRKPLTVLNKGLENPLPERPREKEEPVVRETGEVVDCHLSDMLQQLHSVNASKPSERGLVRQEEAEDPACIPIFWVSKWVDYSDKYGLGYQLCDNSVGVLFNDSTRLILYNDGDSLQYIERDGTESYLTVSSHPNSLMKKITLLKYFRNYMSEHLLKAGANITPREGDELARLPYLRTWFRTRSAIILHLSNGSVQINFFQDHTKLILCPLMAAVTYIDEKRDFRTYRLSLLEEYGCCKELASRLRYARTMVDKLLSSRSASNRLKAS

SMILES	IC50 [nM]
CCOc1ccc(OCC)c(COc2cc(-n3cnc4cnc(CO)cc43)sc2C(N)=O)c1 [Example 109, 3-[(2,5-diethoxybenzyl)oxy]-5-[6-(hydroxymethyl)-1H-imidazo[4,5-c]pyridin-1-yl]thiophene-2-carboxamide]	1000 to 10000
NC(=O)c1sc(-n2cnc3ccncc32)cc1OCc1ccccc1OC(F)F [Example 38, 3-{[2-(difluoromethoxy)benzyl]oxy}-5-(3H-imidazo[4,5-c]pyridin-3-yl)thiophene-2-carboxamide]	10 to 100
NC(=O)c1sc(-n2cnc3cnc(CNC4CC4)cc32)cc1OCc1ccccc1C(F)(F)F [Example 7, 5-{6-[(Cyclopropylamino)methyl]-1H-imidazo[4,5-c]pyridin-1-yl}-3-{[2-(trifluoromethyl)benzyl]oxy}thiophene-2-carboxamide]	10 to 100
C[C@@H](Oc1cc(-n2cnc3cnc(CNCCO)cc32)sc1C(N)=O)c1ccccc1C(F)(F)F [Example 104, 5-(6-{[(2-hydroxyethyl)amino]methyl}-1H-imidazo[4,5-c]pyridin-1-yl)-3-{(1R)-1-[2-(trifluoromethyl)phenyl]ethoxy}thiophene-2-carboxamide]	10 to 100
NC(=O)c1sc(-n2cnc3cnccc32)cc1OCc1ccccc1OC(F)(F)F [Example 33, 5-(1H-imidazo[4,5-c]pyridin-1-yl)-3-{[2-(trifluoromethoxy)benzyl]oxy}thiophene-2-carboxamide]	10 to 100
CCCNCc1cc2c(cn1)ncn2-c1cc(O[C@H](C)c2ccccc2C(F)(F)F)c(C(N)=O)s1 [Example 113]	10 to 100
CN1CCN(Cc2cc3ncn(-c4cc(OCc5ccccc5C(F)(F)F)c(C(N)=O)s4)c3cn2)CC1 [Example 37, 5-{6-[(4-methylpiperazin-1-yl)methyl]-3H-imidazo[4,5-c]pyridin-3-yl}-3-{[2-(trifluoromethyl)benzyl]oxy}thiophene-2-carboxamide]	1000 to 10000

More lines, now with the values ahead:

IC50 [nM]	SMILES
1000 to 10000	CC(Oc1cc(-n2cnc3cc(CN4CCS(=O)(=O)CC4)ncc32)sc1C(N)=O)c1ccccc1F (stereo not shown) [Example 161, 5-{6-[(1,1-dioxidothiomorpholin-4-yl)methyl]-3H-imidazo[4,5-c]pyridin-3-yl}-3-[-1-(2-fluorophenyl)ethoxy]thiophene-2-carboxamide]
10 to 100	CCC(Oc1cc(-n2cnc3cnc(CN4CCCN(C)CC4)cc32)sc1C(N)=O)c1ccccc1Cl (stereo not shown) [Example 141, 3-{[1-(2-chlorophenyl)propyl]oxy}-5-{6-[(4-methyl-1,4-diazepan-1-yl)methyl]-1H-imidazo[4,5-c]pyridin-1-yl}thiophene-2-carboxamide]
10 to 100	CC(=O)N1CCN(Cc2cc3c(cn2)ncn3-c2cc(O[C@H](C)c3ccccc3C(F)(F)F)c(C(N)=O)s2)CC1 [Example 118, 5-{6-[(4-acetylpiperazin-1-yl)methyl]-1H-imidazo[4,5-c]pyridin-1-yl}-3-{(1R)-1-[2-(trifluoromethyl)phenyl]ethoxy}thiophene-2-carboxamide]
10 to 100	C[C@@H](Oc1cc(-n2cnc3cnc(CN4CCN(Cc5ccccc5)CC4)cc32)sc1C(N)=O)c1ccccc1C(F)(F)F [Example 79, 5-{6-[(4-benzylpiperazin-1-yl)methyl]-1H-imidazo[4,5-c]pyridin-1-yl}-3-{(1R)-1-[2-(trifluoromethyl)phenyl]ethoxy}thiophene-2-carboxamide]
< 10	CC(Oc1cc(-n2cnc3cnc(CN4CCN(C(=O)N(C)C)CC4)cc32)sc1C(N)=O)c1ccccc1OC(F)F (stereo not shown) [Example 134, 4-{[1-(5-carbamoyl-4-{1-[2-(difluoromethoxy)phenyl]ethoxy}-2-thienyl)-1H-imidazo[4,5-c]pyridin-6-yl]methyl}-N,N-dimethylpiperazine-1-carboxamide]
10 to 100	C[C@@H](Oc1cc(-n2cnc3cnc(CN4CCN(c5ccncc5)CC4)cc32)sc1C(N)=O)c1ccccc1Cl [Example 131, 3-[(1R)-1-(2-chlorophenyl)ethoxy]-5-{6-[(4-pyridin-4-ylpiperazin-1-yl)methyl]-1H-imidazo[4,5-c]pyridin-1-yl}thiophene-2-carboxamide]
